How the values were obtained:
[1] = target: T1, Alpha-1A adrenergic receptor (Homo sapiens, UniProt P35348); format: functional, cell-based
T1 sequence (P35348 whole entry): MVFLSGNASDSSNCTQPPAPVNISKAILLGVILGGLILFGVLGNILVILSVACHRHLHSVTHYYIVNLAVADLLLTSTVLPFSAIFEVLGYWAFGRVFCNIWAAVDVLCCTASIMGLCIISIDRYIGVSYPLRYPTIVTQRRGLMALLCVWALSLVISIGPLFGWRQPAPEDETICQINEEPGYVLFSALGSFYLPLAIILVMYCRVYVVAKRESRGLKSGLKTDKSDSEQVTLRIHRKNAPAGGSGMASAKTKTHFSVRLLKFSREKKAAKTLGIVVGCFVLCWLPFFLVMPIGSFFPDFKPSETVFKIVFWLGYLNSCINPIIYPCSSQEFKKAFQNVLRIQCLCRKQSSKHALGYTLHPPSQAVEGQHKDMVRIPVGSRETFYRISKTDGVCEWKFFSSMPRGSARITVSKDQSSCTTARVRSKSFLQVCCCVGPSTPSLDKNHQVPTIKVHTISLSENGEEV

[2] = target: Adenosine receptor A2a (Homo sapiens, UniProt P29274)
[3] = target: T2, Alpha-2C adrenergic receptor (Homo sapiens, UniProt P18825); format: functional
T2 sequence (P18825 whole entry): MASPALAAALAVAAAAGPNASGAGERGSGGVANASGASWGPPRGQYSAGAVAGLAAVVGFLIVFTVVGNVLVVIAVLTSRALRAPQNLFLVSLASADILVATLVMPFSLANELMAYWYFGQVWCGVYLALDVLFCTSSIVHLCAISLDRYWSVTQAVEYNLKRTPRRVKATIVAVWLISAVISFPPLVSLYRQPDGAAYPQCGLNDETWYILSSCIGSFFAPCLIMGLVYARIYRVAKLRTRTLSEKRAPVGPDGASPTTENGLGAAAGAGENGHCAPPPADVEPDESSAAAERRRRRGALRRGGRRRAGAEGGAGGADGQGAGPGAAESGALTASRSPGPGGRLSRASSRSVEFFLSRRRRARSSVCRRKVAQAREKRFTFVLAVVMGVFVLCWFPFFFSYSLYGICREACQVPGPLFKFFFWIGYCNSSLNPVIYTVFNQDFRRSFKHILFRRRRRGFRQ

[4] = target: T3, Neuropeptide Y receptor type 1 (Homo sapiens, UniProt P25929)
T3 sequence (P25929 whole entry): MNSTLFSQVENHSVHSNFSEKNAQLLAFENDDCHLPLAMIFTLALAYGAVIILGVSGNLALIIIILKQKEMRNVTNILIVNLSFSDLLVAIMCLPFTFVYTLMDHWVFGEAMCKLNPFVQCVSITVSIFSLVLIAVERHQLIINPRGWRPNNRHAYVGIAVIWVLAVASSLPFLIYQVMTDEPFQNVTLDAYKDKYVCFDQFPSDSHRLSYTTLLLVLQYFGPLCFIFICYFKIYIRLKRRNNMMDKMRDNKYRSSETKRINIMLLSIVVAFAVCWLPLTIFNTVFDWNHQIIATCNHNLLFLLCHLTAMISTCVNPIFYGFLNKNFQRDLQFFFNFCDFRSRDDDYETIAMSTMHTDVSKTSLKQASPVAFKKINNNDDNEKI

[5] = target: T4, Adenosine receptor A3 (Homo sapiens, UniProt P0DMS8)
T4 sequence (P0DMS8 whole entry): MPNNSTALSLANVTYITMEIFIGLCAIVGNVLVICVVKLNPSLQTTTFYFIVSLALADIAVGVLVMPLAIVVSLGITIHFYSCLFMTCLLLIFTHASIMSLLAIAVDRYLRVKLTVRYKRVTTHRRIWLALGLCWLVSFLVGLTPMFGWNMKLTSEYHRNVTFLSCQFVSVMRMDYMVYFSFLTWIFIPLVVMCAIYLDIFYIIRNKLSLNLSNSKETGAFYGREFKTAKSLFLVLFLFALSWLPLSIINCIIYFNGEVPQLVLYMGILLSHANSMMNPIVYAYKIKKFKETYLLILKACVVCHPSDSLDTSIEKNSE

[6] = target: Melanocortin receptor 3 (Homo sapiens, UniProt P41968)
[7] = target: Histamine H3 receptor (Homo sapiens, UniProt Q9Y5N1)
[8] = target: Neuronal acetylcholine receptor subunit alpha-4 (Homo sapiens, UniProt P43681)
[9] = target: T1, Alpha-1A adrenergic receptor; format: functional, cell-based; remark: listed apart in the source
[10] = target: Histamine H2 receptor (Homo sapiens, UniProt P25021); format: functional, cell-based
[11] = target: T5, Gastrin/cholecystokinin type B receptor (Homo sapiens, UniProt P32239)
T5 sequence (P32239 whole entry): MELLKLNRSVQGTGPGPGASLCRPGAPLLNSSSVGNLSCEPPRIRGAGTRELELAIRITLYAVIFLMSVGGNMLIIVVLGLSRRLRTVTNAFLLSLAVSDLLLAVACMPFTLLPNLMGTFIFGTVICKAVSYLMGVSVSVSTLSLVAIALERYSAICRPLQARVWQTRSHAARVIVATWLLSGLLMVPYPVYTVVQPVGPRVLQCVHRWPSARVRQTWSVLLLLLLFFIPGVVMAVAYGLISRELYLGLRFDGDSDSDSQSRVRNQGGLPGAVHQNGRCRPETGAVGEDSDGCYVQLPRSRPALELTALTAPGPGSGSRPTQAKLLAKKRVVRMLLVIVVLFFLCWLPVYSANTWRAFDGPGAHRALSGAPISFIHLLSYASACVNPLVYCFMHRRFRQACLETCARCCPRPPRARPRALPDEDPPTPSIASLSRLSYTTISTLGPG

[12] = target: Vasopressin V1a receptor (Homo sapiens, UniProt P37288)
[13] = target: Delta-type opioid receptor (Homo sapiens, UniProt P41143)
[14] = target: Glutamate receptor ionotropic, NMDA 1 (Rattus norvegicus, UniProt P35439)
[15] = target: Beta-2 adrenergic receptor (Homo sapiens, UniProt P07550)
[16] = target: Voltage-dependent L-type calcium channel subunit alpha-1C (Rattus norvegicus, UniProt P22002); format: functional
Further: assay procedure not described here.

Histamine H3 receptor, sequence (Q9Y5N1 whole entry): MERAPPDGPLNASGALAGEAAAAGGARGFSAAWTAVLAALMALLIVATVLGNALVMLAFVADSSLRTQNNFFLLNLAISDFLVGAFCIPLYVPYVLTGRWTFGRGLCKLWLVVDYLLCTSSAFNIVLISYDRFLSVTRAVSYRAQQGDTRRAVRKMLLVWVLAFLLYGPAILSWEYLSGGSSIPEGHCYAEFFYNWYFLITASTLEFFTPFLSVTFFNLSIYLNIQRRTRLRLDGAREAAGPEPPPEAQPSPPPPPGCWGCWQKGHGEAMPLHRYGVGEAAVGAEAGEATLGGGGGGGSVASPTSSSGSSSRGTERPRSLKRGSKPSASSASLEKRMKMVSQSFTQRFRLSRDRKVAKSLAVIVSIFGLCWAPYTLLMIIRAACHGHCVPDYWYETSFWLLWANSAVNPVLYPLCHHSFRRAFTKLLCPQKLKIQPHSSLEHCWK
Beta-2 adrenergic receptor, sequence (P07550 whole entry): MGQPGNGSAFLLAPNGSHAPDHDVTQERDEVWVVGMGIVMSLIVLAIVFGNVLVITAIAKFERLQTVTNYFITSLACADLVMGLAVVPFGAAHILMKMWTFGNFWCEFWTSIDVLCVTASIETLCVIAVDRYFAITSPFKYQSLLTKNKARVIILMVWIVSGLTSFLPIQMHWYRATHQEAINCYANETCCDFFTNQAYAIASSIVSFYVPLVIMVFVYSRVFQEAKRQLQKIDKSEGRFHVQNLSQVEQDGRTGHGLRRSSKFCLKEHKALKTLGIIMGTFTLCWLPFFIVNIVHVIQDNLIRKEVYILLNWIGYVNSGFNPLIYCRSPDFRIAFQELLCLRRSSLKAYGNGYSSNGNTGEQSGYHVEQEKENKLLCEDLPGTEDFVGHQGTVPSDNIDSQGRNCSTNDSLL
Voltage-dependent L-type calcium channel subunit alpha-1C, sequence (P22002 whole entry): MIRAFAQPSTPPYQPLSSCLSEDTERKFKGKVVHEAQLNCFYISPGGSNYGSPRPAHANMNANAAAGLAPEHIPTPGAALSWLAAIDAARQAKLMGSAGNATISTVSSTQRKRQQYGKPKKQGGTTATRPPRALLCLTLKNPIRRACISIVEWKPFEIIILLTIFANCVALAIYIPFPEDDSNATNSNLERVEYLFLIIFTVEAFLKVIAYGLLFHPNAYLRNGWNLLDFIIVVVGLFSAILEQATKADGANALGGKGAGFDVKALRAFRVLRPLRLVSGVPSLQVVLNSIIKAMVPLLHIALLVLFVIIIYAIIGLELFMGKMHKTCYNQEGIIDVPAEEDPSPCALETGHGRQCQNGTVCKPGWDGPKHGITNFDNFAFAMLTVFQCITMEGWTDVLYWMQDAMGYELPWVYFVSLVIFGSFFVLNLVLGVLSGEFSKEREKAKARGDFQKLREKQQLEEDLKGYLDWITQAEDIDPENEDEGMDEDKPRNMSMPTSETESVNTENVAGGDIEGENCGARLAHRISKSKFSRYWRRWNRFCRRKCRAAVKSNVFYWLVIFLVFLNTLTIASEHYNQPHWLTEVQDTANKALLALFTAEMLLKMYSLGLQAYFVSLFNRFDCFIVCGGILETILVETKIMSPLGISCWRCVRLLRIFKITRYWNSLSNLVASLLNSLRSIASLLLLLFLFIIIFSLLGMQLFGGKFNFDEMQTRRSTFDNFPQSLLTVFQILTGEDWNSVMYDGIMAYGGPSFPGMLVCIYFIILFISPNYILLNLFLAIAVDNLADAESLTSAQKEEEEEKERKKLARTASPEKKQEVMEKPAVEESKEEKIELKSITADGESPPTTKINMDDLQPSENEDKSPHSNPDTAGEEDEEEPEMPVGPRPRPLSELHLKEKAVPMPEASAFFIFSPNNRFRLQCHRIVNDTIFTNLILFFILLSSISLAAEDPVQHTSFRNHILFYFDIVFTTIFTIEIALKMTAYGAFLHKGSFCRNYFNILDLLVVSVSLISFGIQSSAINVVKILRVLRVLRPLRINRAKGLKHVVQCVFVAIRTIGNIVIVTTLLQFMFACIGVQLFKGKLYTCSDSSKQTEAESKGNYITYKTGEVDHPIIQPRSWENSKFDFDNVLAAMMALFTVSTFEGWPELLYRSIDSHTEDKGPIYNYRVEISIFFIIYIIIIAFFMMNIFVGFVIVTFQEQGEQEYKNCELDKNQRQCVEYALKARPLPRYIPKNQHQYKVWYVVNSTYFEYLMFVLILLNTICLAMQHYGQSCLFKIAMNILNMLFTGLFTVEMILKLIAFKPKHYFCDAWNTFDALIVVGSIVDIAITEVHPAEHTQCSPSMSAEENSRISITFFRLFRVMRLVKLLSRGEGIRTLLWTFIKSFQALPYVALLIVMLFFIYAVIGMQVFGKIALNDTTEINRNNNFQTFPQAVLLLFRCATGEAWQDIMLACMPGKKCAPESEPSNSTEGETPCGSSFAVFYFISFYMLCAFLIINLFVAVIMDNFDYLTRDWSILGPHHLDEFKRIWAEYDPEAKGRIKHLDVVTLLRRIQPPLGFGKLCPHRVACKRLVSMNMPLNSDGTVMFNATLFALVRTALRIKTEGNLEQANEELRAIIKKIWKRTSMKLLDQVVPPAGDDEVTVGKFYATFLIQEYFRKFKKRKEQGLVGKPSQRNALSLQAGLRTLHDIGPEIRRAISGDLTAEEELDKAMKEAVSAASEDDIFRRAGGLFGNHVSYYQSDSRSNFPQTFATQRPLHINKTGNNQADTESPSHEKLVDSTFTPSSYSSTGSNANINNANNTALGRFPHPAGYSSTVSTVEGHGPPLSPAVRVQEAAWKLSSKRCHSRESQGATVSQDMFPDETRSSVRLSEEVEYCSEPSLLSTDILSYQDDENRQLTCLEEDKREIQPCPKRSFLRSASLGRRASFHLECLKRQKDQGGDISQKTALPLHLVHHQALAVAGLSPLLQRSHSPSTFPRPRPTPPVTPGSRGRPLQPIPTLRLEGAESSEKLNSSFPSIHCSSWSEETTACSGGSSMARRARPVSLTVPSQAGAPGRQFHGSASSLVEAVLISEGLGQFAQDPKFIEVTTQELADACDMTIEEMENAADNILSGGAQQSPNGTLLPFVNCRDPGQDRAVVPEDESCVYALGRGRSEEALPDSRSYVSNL
Neuronal acetylcholine receptor subunit alpha-4, sequence (P43681 whole entry): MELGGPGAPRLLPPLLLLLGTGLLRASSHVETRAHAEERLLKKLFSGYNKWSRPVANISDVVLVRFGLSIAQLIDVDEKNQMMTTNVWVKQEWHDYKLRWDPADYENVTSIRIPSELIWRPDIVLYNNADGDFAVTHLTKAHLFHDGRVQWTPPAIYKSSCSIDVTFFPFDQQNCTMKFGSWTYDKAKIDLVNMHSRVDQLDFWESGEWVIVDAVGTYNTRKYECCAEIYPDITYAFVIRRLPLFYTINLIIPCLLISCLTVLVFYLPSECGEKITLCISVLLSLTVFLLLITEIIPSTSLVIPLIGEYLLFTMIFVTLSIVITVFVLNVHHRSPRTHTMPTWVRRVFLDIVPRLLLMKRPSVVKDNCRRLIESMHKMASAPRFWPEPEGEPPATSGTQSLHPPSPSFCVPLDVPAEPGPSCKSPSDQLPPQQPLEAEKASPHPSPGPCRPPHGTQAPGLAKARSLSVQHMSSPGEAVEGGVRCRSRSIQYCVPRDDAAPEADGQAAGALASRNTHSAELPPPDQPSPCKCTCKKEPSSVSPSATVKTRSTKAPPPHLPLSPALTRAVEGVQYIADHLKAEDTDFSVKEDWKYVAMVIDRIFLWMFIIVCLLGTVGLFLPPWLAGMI
Vasopressin V1a receptor, sequence (P37288 whole entry): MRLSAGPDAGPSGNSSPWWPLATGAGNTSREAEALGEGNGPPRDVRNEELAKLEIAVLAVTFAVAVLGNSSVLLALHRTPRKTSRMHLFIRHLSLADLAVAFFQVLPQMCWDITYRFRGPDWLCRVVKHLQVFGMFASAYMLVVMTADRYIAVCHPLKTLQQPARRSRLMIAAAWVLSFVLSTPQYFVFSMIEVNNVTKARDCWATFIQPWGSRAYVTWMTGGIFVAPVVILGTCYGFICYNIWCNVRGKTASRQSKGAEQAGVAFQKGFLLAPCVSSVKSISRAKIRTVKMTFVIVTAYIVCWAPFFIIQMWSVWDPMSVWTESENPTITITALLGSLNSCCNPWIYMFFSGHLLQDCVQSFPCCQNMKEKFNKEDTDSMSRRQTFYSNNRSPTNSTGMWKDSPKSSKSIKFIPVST
Adenosine receptor A2a, sequence (P29274 whole entry): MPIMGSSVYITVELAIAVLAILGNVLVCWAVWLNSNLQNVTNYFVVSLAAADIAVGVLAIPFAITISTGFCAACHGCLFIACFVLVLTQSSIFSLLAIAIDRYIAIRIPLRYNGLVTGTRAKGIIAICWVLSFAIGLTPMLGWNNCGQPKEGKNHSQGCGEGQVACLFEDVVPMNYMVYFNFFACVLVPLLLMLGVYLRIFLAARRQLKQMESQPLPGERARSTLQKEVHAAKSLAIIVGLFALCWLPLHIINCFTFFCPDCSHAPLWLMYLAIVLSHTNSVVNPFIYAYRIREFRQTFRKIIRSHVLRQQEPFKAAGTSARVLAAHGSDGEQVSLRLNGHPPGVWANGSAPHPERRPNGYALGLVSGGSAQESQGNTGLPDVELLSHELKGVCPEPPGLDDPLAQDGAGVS
Delta-type opioid receptor, sequence (P41143 whole entry): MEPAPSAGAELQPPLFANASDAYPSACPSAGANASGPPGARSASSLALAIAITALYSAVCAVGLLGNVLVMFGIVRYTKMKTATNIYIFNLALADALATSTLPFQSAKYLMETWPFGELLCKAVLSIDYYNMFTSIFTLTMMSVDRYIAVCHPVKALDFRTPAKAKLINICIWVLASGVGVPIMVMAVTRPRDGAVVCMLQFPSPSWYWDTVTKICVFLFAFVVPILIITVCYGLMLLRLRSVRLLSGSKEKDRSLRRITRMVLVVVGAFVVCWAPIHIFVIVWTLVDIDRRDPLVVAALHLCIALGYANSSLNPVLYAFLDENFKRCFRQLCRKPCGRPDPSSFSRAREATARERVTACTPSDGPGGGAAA

Structure (SMILES) | AC50 [1] [µM] | AC50 [2] [µM] | AC50 [3] [µM] | AC50 [4] [µM] | AC50 [5] [µM] | AC50 [6] [µM] | AC50 [7] [µM] | AC50 [8] [µM] | AC50 [9] [µM] | AC50 [10] [µM] | AC50 [11] [µM] | AC50 [12] [µM] | AC50 [13] [µM] | AC50 [14] [µM] | AC50 [15] [µM] | AC50 [16] [µM]
CC[C@@H](C(N)=O)N1CCCC1=O | > 30 | > 30 | > 30 | > 30 | > 30 | > 30 | > 30 | > 30 | > 30 | > 30 | > 30 | > 30 | > 30 | > 30 | – | –
CCC(CC)(CC(=O)Nc1cccc(/C=C/c2nc(C3CCC3)cs2)c1)C(=O)O | – | > 30 | – | > 30 | 13.9 | > 30 | > 30 | > 30 | – | – | > 30 | > 30 | – | – | – | –
CCCC1O[C@@H]2C[C@H]3[C@@H]4CCC5=CC(=O)C=C[C@]5(C)[C@H]4[C@@H](O)C[C@]3(C)[C@]2(C(=O)CO)O1 (some centres not stated) [BUDESONIDE] | – | > 10 | > 10 | > 10 | > 10 | > 10 | > 10 | > 10 | – | > 10 | – | > 10 | > 30 | > 10 | > 10 | > 10
C=CCN1C[C@H](C(=O)N(CCCN(C)C)C(=O)NCC)C[C@@H]2c3cccc4[nH]cc(c34)C[C@H]21 [CABERGOLINE] | – | > 10 | 0.3 | > 10 | > 10 | > 10 | – | > 10 | 0.599 | 4.23 | – | > 10 | > 30 | > 10 | > 10 | > 10
NC1CCN(c2c(F)cc3c(=O)c(C(=O)O)cn(C4CC4)c3c2Cl)C1 (configuration not stated) [CLINAFLOXACIN] | – | – | – | – | – | – | – | – | – | – | – | – | 18 | – | – | –
CN1CCN(C2=Nc3ccccc3Sc3ccc(Cl)cc32)CC1 [CLOTHIAPINE] | 1.2 | – | 2.1 | – | – | – | – | – | > 30 | > 30 | – | – | 22 | > 30 | – | –
CCOc1ccc(Cc2cc([C@@H]3O[C@H](CO)[C@@H](O)[C@H](O)[C@H]3O)ccc2Cl)cc1 [DAPAGLIFLOZIN] | – | > 30 | > 10 | > 30 | > 30 | > 30 | > 10 | > 10 | – | – | > 30 | > 30 | > 30 | > 10 | > 10 | > 10
CC[C@H]1CN2CCc3cc(OC)c(OC)cc3[C@@H]2C[C@@H]1C[C@H]1NCCc2cc(OC)c(OC)cc21 [EMETINE] | > 30 | > 30 | 0.23 | > 30 | > 30 | > 30 | > 30 | > 30 | > 30 | > 30 | > 30 | > 30 | > 30 | > 30 | > 30 | –
O=[N+]([O-])O[C@@H]1CO[C@H]2[C@@H]1OC[C@@H]2O [ISOSORBIDE MONONITRATE] | – | > 30 | > 10 | > 30 | > 30 | > 30 | > 10 | – | – | > 10 | > 30 | > 10 | > 30 | > 10 | > 10 | > 10
Cc1cc(C)c(NC(=O)CN(CC(=O)O)CC(=O)O)c(C)c1Br [MEBROFENIN] | > 30 | – | > 30 | – | – | – | – | – | > 30 | > 30 | – | – | > 30 | > 30 | – | –
COc1ccccc1N1CCN(CC(O)COc2cccc3ccccc23)CC1 (configuration not stated) [NAFTOPIDIL] | 0.46 | > 30 | 0.2 | – | > 30 | > 30 | – | > 10 | > 30 | 1.3 | – | – | 12 | > 30 | – | 6.3
C[N+]1(CCCCC[N+]2(C)CCCC2)CCCC1 [PENTOLINIUM] | – | – | – | – | – | – | – | > 30 | – | – | – | – | – | – | – | –
COc1cc2nc(N3CCN(C(=O)c4ccco4)CC3)nc(N)c2cc1OC [PRAZOSIN] | – | > 30 | – | > 30 | > 30 | > 30 | > 10 | > 10 | – | – | > 30 | > 10 | > 10 | > 10 | > 10 | > 10
O=[N+]([O-])c1cn2c(n1)OC[C@@H](OCc1ccc(OC(F)(F)F)cc1)C2 [PRETOMANID] | – | > 30 | > 10 | > 30 | > 30 | > 30 | – | – | – | – | > 30 | > 10 | > 10 | > 10 | > 10 | > 10
Cc1oc(=O)oc1CN1CCN(c2cc3c(cc2F)c(=O)c(C(=O)O)c2n3C(C)S2)CC1 (configuration not stated) [PRULIFLOXACIN] | > 30 | – | > 30 | – | – | – | – | – | > 30 | > 30 | – | – | > 30 | > 30 | – | –
COC1=C(OC)C(=O)C(C/C=C(\C)CC/C=C(\C)CC/C=C(\C)CC/C=C(\C)CC/C=C(\C)CC/C=C(\C)CC/C=C(\C)CC/C=C(\C)CC/C=C(\C)CCC=C(C)C)=C(C)C1=O [UBIDECARENONE] | > 30 | – | > 30 | – | – | – | – | – | > 30 | > 30 | – | – | > 30 | > 30 | – | –
CN(C)CCc1c[nH]c2ccc(C[C@H]3COC(=O)N3)cc12 [ZOLMITRIPTAN] | – | > 30 | > 30 | > 30 | > 30 | > 30 | > 30 | > 30 | 14 | > 30 | > 30 | > 30 | > 10 | > 30 | – | –

— ChEMBL document CHEMBL5291721, “A preclinical secondary pharmacology resource illuminates target-adverse drug reaction associations of marketed drugs” (Nat Commun, 2023)
